Legend:
HCT-116 [1] = test: Induction of cell cycle arrest in human HCT-116 cells assessed as cell debris at antiproliferative IC50 by PI staining based flow cytometric analysis (reference value: 1.42%); format: functional; details: time 24 hrs
HCT-116 [2] = test: Induction of cell cycle arrest in human HCT-116 cells assessed as aggregates at antiproliferative IC50 by PI staining based flow cytometric analysis (reference value: 1.61%); format: functional; details: time 24 hrs
MCF7 [3] = test: Induction of cell cycle arrest in human MCF7 cells assessed as aggregates at antiproliferative IC50 by PI staining based flow cytometric analysis (reference value: 2.11%); format: functional; details: time 24 hrs
HepG2 [4] = test: Induction of cell cycle arrest in human HepG2 cells assessed as cell debris at antiproliferative IC50 by PI staining based flow cytometric analysis (reference value: 1.52%); format: functional; details: time 24 hrs
Tubulin (Homo sapiens) = Tubulin (Homo sapiens) (UniProt P68371+Q9H4B7+P0DPH7+P68366+Q13509+Q71U36+P04350+Q3ZCM7+P07437+P68363+Q9BQE3+Q6PEY2+Q13885+Q9BVA1+Q9BUF5); test: Inhibition of tubulin polymerization (unknown origin) at 10 uM relative to control; format: protein-complex assay
[5] = target: T1, Casein kinase II subunit alpha (Homo sapiens, UniProt P68400); test: Inhibition of CK2 alpha (unknown origin) at 10 uM relative to control
Target sequence in this assay (P68400 whole entry, looked up): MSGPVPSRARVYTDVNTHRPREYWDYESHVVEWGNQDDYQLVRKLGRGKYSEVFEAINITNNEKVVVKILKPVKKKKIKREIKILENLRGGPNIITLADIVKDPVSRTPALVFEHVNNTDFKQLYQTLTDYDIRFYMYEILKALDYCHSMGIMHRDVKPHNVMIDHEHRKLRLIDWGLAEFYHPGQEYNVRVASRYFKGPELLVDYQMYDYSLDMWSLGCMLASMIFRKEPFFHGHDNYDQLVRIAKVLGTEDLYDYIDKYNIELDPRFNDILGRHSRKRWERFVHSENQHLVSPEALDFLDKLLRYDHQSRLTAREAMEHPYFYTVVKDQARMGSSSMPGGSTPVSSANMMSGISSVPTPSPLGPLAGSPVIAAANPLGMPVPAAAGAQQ

HCT-116 [6] = test: Induction of apoptosis in human HCT-116 cells assessed as decrease in Bcl-2 protein expression by Western blot analysis relative to untreated control; format: functional
MCF7 [7] = test: Induction of apoptosis in human MCF-7 cells assessed as decrease in Bcl-2 protein expression by Western blot analysis relative to untreated control; format: functional
HepG2 [8] = test: Induction of apoptosis in human HepG2 cells assessed as decrease in Bcl-2 protein expression by Western blot analysis relative to untreated control; format: functional
MCF7 [9] = test: Induction of apoptosis in human MCF-7 cells assessed as increase in caspase-9 level after 24 hrs by Western blot analysis relative to untreated control; format: functional
HepG2 [10] = test: Induction of apoptosis in human HepG2 cells assessed as increase in caspase-3 level after 24 hrs by Western blot analysis relative to untreated control; format: functional
HCT-116 [11] = test: Induction of apoptosis in human HCT-116 cells assessed as necrotic cells at antiproliferative IC50 incubated for 24 hrs by annexin V FITC and propidium iodide staining based flow cytometry (reference value: 0.59 %); format: functional
MCF7 [12] = test: Induction of apoptosis in human MCF7 cells assessed as necrotic cells at antiproliferative IC50 incubated for 24 hrs by annexin V FITC and propidium iodide staining based flow cytometry (reference value: 1.11 %); format: functional
HepG2 [13] = test: Induction of apoptosis in human HepG2 cells assessed as necrotic cells at antiproliferative IC50 incubated for 24 hrs by annexin V FITC and propidium iodide staining based flow cytometry (reference value: 0.52 %); format: functional
HCT-116 [14] = test: Induction of apoptosis in human HCT-116 cells assessed as late apoptotic cells at antiproliferative IC50 incubated for 24 hrs by annexin V FITC and propidium iodide staining based flow cytometry (reference value: 0.19 %); format: functional
MCF7 [15] = test: Induction of apoptosis in human MCF7 cells assessed as late apoptotic cells at antiproliferative IC50 incubated for 24 hrs by annexin V FITC and propidium iodide staining based flow cytometry (reference value: 0.28 %); format: functional
HepG2 [16] = test: Induction of apoptosis in human HepG2 cells assessed as late apoptotic cells at antiproliferative IC50 incubated for 24 hrs by annexin V FITC and propidium iodide staining based flow cytometry (reference value: 0.31 %); format: functional
HCT-116 [17] = test: Induction of apoptosis in human HCT-116 cells assessed as early apoptotic cells at antiproliferative IC50 incubated for 24 hrs by annexin V FITC and propidium iodide staining based flow cytometry (reference value: 0.41 %); format: functional
HepG2 [18] = test: Induction of apoptosis in human HepG2 cells assessed as early apoptotic cells at antiproliferative IC50 incubated for 24 hrs by annexin V FITC and propidium iodide staining based flow cytometry (reference value: 0.61 %); format: functional
HCT-116 [19] = test: Induction of cell cycle arrest in human HCT-116 cells assessed as accumulation of cells at G0/G1 phase at antiproliferative IC50 by PI staining based flow cytometric analysis (reference value: 48.52%); format: functional
MCF7 [20] = test: Induction of cell cycle arrest in human MCF7 cells assessed as accumulation of cells at G2/M phase at antiproliferative IC50 by PI staining based flow cytometric analysis (reference value: 10.95%); format: functional
MCF7 [21] = test: Induction of cell cycle arrest in human MCF7 cells assessed as accumulation of cells at Pre-G1 phase at antiproliferative IC50 by PI staining based flow cytometric analysis (reference value: 1.78%); format: functional
MCF7 [22] = test: Induction of cell cycle arrest in human MCF7 cells assessed as accumulation of cells at S phase at antiproliferative IC50 by PI staining based flow cytometric analysis (reference value: 32.91%); format: functional
MCF7 [23] = test: Induction of cell cycle arrest in human MCF7 cells assessed as accumulation of cells at G0/G1 phase at antiproliferative IC50 by PI staining based flow cytometric analysis (reference value: 56.14%); format: functional
HepG2 [24] = test: Induction of cell cycle arrest in human HepG2 cells assessed as accumulation of cells at Pre-G1 phase at antiproliferative IC50 by PI staining based flow cytometric analysis (reference value: 1.44%); format: functional
Tubulin = test: Inhibition of tubulin polymerization (unknown origin) relative to control; format: protein-complex assay, Homo sapiens
HepG2 [25] = test: Induction of cell cycle arrest in human HepG2 cells assessed as accumulation of cells at G0/G1 phase at antiproliferative IC50 by PI staining based flow cytometric analysis (reference value: 51.88%); format: functional
[26] = target: T1, Casein kinase II subunit alpha; test: Inhibition of CK2 alpha (unknown origin) relative to control
Target sequence in this assay (P68400 whole entry): as the sequence (P68400 whole entry, looked up) above

[27] = target: Vascular endothelial growth factor receptor 2 (Homo sapiens, UniProt P35968)
Description: Inhibition of VEGFR-2 (unknown origin) relative to control

WI-38 = test: Cytotoxicity against human WI38 cells assessed as reduction in cell viability by MTT assay; format: cell-based
WISH = test: Cytotoxicity against human WISH cells assessed as reduction in cell viability by MTT assay; format: cell-based
HCT-116 [28] = test: Antitumor activity against human HCT-116 cells assessed as inhibition of cell viability by MTT assay; format: functional, cell-based
MCF7 [29] = test: Antitumor activity against human MCF7 cells assessed as inhibition of cell viability by MTT assay; format: functional, cell-based
HCT-116 [30] = test: Induction of cell cycle arrest in human HCT-116 cells assessed as accumulation of cells at S phase at antiproliferative IC50 by PI staining based flow cytometric analysis (reference value: 35.61%); format: functional
HepG2 [31] = test: Antitumor activity against human HepG2 cells assessed as inhibition of cell viability by MTT assay; format: functional, cell-based
HCT-116 [32] = test: Induction of cell cycle arrest in human HCT-116 cells assessed as accumulation of cells at G2/M phase at antiproliferative IC50 by PI staining based flow cytometric analysis (reference value: 15.87%); format: functional
HepG2 [33] = test: Induction of cell cycle arrest in human HepG2 cells assessed as accumulation of cells at S phase at antiproliferative IC50 by PI staining based flow cytometric analysis (reference value: 34.03%); format: functional

Sequence of Vascular endothelial growth factor receptor 2 (P35968 whole entry): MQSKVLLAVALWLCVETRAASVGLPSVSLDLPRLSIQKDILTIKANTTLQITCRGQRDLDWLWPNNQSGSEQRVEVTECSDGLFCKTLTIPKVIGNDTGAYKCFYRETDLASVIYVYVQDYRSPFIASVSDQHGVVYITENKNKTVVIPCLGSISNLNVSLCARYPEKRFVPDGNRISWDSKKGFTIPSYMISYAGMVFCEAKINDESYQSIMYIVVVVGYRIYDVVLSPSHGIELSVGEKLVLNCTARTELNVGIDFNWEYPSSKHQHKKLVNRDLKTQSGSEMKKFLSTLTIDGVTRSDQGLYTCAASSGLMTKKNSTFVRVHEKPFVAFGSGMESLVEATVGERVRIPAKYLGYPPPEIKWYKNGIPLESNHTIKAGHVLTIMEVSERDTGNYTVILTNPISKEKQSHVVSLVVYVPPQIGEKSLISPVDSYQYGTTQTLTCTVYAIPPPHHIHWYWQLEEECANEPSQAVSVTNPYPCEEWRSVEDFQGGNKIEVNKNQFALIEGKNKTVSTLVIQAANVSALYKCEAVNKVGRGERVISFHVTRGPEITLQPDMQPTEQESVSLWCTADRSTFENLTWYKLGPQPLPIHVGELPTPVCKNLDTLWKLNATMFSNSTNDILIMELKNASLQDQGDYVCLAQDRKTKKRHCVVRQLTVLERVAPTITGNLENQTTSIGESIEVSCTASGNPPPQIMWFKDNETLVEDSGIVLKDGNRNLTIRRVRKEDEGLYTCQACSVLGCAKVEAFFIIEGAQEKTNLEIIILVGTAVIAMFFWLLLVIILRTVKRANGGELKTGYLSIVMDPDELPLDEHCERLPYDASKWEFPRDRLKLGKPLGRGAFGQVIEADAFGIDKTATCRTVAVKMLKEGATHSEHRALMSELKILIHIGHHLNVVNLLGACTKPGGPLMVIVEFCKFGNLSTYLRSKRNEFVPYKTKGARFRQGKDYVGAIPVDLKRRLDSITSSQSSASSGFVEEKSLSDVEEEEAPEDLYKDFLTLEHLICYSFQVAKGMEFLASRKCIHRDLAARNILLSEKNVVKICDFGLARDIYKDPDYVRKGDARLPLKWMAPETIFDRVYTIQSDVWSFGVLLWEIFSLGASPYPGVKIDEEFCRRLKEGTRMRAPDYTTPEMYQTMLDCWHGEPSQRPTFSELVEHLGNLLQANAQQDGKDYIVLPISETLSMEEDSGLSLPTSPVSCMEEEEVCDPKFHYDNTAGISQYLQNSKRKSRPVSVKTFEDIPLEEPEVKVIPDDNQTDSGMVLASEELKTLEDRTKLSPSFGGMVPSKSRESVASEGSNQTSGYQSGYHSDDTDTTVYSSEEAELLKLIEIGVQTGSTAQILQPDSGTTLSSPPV

With `Cc1cc(NC2=NC(=O)/C(=C\c3c4ccccc4cc4ccccc34)S2)no1` as the compound, how does the Activity (HCT-116 [1]) read?
Its Activity is 1.92%.

And the Activity (HCT-116 [2])?
Its Activity is 1.74%.

And the Activity (MCF7 [3])?
Its Activity is 2.11%.

What about the Activity (HepG2 [4]) of the same compound?
Its Activity is 2.18%.

And the inhibition (Tubulin (Homo sapiens))?
Its inhibition is 57.7%.

And the inhibition [5]?
The inhibition was 76.3%.

And the “fold change (FC)” value (HCT-116 [6])?
Its value is 0.64.

And the “fold change (FC)” value (MCF7 [7])?
The value was 0.62.

What about the “fold change (FC)” value (HepG2 [8]) of the same compound?
Its value is 0.56.

What about the “fold change (FC)” value (MCF7 [9]) of the same compound?
The value was 4.7.

What about the “fold change (FC)” value (HepG2 [10]) of the same compound?
The value was 5.4.

What about the Activity (HCT-116 [11]) of the same compound?
The Activity was 2.27%.

What about the Activity (MCF7 [12]) of the same compound?
Its Activity is 2.31%.

What about the Activity (HepG2 [13]) of the same compound?
The Activity was 1.77%.

What about the Activity (HCT-116 [14]) of the same compound?
The Activity was 15.19%.

What about the Activity (MCF7 [15]) of the same compound?
Its Activity is 7.82%.

What about the Activity (HepG2 [16]) of the same compound?
Its Activity is 8%.

What about the Activity (HCT-116 [17]) of the same compound?
The Activity was 5.23%.

What about the Activity (HepG2 [18]) of the same compound?
The Activity was 3.51%.

And the Activity (HCT-116 [19])?
The Activity was 29.67%.

What about the Activity (MCF7 [20]) of the same compound?
The Activity was 29.3%.

And the Activity (MCF7 [21])?
The Activity was 16.41%.

And the Activity (MCF7 [22])?
Its Activity is 26.41%.

What about the Activity (MCF7 [23]) of the same compound?
Its Activity is 44.25%.

What about the Activity (HepG2 [24]) of the same compound?
Its Activity is 13.3%.

And the IC50 (Tubulin)?
The IC50 was 3.61 µM.

What about the Activity (HepG2 [25]) of the same compound?
The Activity was 38.11%.

What about the IC50 [26] of the same compound?
The IC50 was 0.171 µM.

What about the IC50 [27] of the same compound?
Its IC50 is 0.087 µM.

What about the IC50 (WI-38) of the same compound?
Its IC50 is 38.6 µM.

What about the IC50 (WISH) of the same compound?
Its IC50 is 53.2 µM.

What about the IC50 (HCT-116 [28]) of the same compound?
The IC50 was 7.72 µM.

What about the IC50 (MCF7 [29]) of the same compound?
The IC50 was 6.38 µM.

What about the Activity (HCT-116 [30]) of the same compound?
Its Activity is 27.44%.

And the IC50 (HepG2 [31])?
The IC50 was 6.86 µM.

What about the Activity (HCT-116 [32]) of the same compound?
The Activity was 42.89%.

What about the Activity (HepG2 [33]) of the same compound?
The Activity was 24.96%.

From ChEMBL document CHEMBL4665865, “New series of isoxazole derivatives targeting EGFR-TK: Synthesis, molecular modeling and antitumor evaluation” (Bioorg Med Chem, 2020)
